Measurements as given in US7799797B2, “Arylsulfonyl naphthalene derivatives and uses thereof” (Roche Palo Alto LLC, priority 2006, dated 2010).

Legend:
[1] = target: T1, recombinant human 5-HT6 receptor (Homo sapiens, UniProt P50406); assay: Radioligand binding, [3H]LSD competition in HEK293 cell membranes; settings: [3H]LSD displacement, pH 7.4, 37° C., read-out: pKi for 5-HT6 (converted)
T1 construct: expressed in transfected cells
Protocol: (§1) The binding activity of compounds of this invention in vitro was determined as follows. Duplicate determinations of 5-HT6 ligand affinity were made by competing for binding of [^3H]LSD in cell membranes derived from HEK293 cells stably expressing recombinant human 5-HT6 receptor. Duplicate determinations of 5-HT2A ligand affinity were made by competing for binding of [^3H]Ketanserin (3-(2-(4-(4-fluorobenzoyl)piperidinol)ethyl)-2,4(1H, 3H)-quinazolinedione) in cell membranes derived from CHO-K1 cells stably expressing recombinant human 5-HT2A receptor. Membranes were prepared from HEK 293 cell lines by the method described by Monsma et al., Molecular Pharmacology, Vol. 43 pp. 320-327 (1993), and from CHO-K1 cell lines as described by Bonhaus et al., Br J. Pharmacol. June; 115(4):622-8 (1995).
(§2) For estimation of affinity at the 5-HT6 receptor, all determinations were made in assay buffer containing 50 mM Tris-HCl, 10 mM MgSO4, 0.5 mM EDTA, 1 mM ascorbic acid, pH 7.4 at 37° C., in a 250 microliter reaction volume. […]
(§3) Assay tubes containing [^3H] […] LSD or [^3H]Ketanserin were determined as radioactive counts per minute using Packard TopCount.
(§4) Displacement of [^3H]LSD or [^3H]Ketanserin from the binding sites was quantified by fitting concentration-binding data to a 4-parameter logistic equation: […]

[2] = target: T2, recombinant human 5-HT2A receptor (Homo sapiens, UniProt P28223); assay: Radioligand binding, [3H]Ketanserin competition in CHO-K1 cell membranes; settings: [3H]Ketanserin displacement, pH 7.4, 32° C., read-out: pKi for 5-HT2A (converted)
T2 construct: expressed in transfected cells
T2 sequence (P28223 whole entry): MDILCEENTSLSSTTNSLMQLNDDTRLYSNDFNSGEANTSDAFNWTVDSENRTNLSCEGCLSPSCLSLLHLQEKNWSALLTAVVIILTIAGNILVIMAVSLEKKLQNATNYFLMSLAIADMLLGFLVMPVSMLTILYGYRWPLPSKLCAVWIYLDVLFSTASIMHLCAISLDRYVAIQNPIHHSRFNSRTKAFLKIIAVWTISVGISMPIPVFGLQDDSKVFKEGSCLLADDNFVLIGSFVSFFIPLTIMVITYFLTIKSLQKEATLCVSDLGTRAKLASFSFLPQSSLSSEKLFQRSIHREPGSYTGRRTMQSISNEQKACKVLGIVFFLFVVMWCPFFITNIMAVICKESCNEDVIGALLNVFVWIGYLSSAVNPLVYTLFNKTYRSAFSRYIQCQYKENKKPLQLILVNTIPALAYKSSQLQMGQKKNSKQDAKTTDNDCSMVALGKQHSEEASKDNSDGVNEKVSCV
Protocol: as §1, §2, §3, §4

T1 sequence (P50406 whole entry): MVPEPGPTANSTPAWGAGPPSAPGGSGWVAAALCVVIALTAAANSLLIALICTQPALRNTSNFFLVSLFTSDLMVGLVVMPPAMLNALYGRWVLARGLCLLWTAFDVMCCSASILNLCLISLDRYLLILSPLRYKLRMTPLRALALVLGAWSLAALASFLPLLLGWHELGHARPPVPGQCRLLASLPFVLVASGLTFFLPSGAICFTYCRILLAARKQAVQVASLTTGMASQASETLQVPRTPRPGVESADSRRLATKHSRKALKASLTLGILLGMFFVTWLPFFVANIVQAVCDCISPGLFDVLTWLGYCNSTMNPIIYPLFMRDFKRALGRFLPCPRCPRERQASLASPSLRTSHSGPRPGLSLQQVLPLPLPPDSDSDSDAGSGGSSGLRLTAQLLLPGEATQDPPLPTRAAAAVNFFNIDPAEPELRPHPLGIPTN

SMILES | Ki [1] [nM] | Ki [2] [nM]
CNCc1cccc2cc(S(=O)(=O)c3ccccc3)ccc12 [Compound 1, (6-Benzenesulfonyl-naphthalen-1-ylmethyl)-methyl-amine] | ~0.447 | 
NCc1cccc2cc(S(=O)(=O)c3cccc(F)c3)ccc12 [Compound 2, C-[6-(3-Fluoro-benzenesulfonyl)-naphthalen-1-yl]-methylamine] |  | ~5.01
